This note sets out measurements from patent publication US7727980B2, “Tricyclic androgen receptor modulator compounds and methods” (priority 2001, dated 2010).

The target in test [1] is T1, human AR (Homo sapiens, UniProt P10275).
T1 sequence (P10275 1-920): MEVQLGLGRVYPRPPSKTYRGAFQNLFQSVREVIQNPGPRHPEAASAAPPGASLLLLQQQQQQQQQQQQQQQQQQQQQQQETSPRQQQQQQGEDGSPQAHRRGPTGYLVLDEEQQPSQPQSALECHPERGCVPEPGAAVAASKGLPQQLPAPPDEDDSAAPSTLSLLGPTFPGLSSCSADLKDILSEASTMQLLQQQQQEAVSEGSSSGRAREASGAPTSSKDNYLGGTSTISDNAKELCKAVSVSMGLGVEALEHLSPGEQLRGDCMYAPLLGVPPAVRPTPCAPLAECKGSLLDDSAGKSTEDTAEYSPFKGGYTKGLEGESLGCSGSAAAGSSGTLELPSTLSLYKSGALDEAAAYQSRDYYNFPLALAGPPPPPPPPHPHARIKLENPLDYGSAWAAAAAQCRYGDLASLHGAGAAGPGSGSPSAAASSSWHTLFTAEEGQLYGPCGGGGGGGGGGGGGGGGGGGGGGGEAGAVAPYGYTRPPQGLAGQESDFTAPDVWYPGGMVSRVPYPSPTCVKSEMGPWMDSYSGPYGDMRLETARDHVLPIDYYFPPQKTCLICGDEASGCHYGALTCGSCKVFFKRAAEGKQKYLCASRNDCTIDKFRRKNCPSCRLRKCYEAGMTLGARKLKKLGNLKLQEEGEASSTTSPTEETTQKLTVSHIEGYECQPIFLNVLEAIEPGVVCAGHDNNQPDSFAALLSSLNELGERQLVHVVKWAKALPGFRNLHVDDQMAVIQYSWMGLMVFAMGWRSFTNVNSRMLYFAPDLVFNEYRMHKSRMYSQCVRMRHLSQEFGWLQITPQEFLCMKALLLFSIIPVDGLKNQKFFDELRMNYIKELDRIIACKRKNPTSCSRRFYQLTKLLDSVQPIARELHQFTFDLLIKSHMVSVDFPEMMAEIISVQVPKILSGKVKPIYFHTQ
The test is described as follows: AR whole cell competitive binding assay (3H-DHT), transfected COS-1 cells. The arrangement: expressed in transfected cells; transient transfection with pRShAR. As for the experimental part: AR Binding: For the whole cell binding assay, COS-1 cells in 96-well microtiter plates containing DMEM-10% FBS were transfected as described above with the following plasmid DNA: pRShAR (2 ng/well), pRS-β-Gal (50 ng/well) and pGEM (48 ng/well). Six hours after transfection, media was removed, the cells were washed with PBS and fresh media was added. The next day, the media was changed to DMEM-serum free to remove any endogenous ligand that might be complexed with the receptor in the cells.
Three replicates were used for each sample. […] The remaining media was removed, the cells were washed three times with PBS to remove unbound ligand and cells were lysed with a Triton X-100-based buffer.
For the saturation analyses, the difference between the total binding and the nonspecific binding, normalized by the β-Gal rate, was defined as specific binding. […] The Ki values were determined by application of the Cheng-Prusoff equation to the IC50 values, where: […]
After correcting for non-specific binding, IC50 values were determined. […] The IC50 value was determined graphically from a log-logit plot of the data. The Ki values were determined by application of the Cheng-Prusoff equation to the IC50 values, the labeled ligand concentration and the Kd of the labeled ligand.

Test [2] has as its target T1, human AR. The experiment in a line: Co-transfection assay, AR agonist activity, CV-1 cells. Format: cell-based. Also on record: expressed in transfected cells; host or cells: CV-1 cells (African green monkey kidney fibroblasts), transient transfection with pRShAR. As to conditions: for EC50: AR Agonist CV-1 Cells Potency (nM), agonist potency or EC50; for AR Agonist CV-1 Cells Efficacy (%): percent maximal response relative to reference agonist DHT.

Test [3] addresses T1, human AR. The test is described as follows: Co-transfection assay, AR antagonist activity in presence of DHT, CV-1 cells. Format: cell-based. The arrangement: expressed in transfected cells; host or cells: CV-1 cells (African green monkey kidney fibroblasts), transient transfection with pRShAR. As to conditions: for AR Antagonist CV-1 Cells Efficacy (%): percent maximal inhibition, DHT at its EC50 concentration.

Where [4] appears, read: AR Binding Ki (nM), COS-1 cells, 1 nM 3H-DHT, Cheng-Prusoff from IC50.
Setting [5] is: AR Antagonist CV-1 Cells Potency (nM), CV-1 cells, antagonist potency or IC50, DHT at its EC50 concentration.

Read-outs that look alike come from different tables or passages of the source.

What is called Ki is a measure of affinity in units of concentration, obtained from inhibition or displacement. For orientation: EC50 means the concentration at which the effect is half-maximal. One may read the IC50 as the concentration that inhibits the measured activity by half. For `O=c1cc(C(F)(F)F)c2c3c(ccc2[nH]1)N(CC(F)(F)F)C1CCCCC31` (racemic) [Compound 132, (±)-4c,5,6,7,8,8a(cis),9-Heptahydro-9-(2,2,2-trifluoroethyl)-4-trifluoro-methyl-9H-cyclohexano[g]pyrrolo[3,2-f]quinolin-2(1H)-one], in test [1] (setting [4]), the Ki was determined as 21 nM. Besides, in test [2], it took 4.8 nM to reach a half-maximal effect (EC50) and the “AR Agonist CV-1 Cells Efficacy (%)” value was found to be 70%. Further, the IC50 in test [3] (setting [5]) was over 10000 nM. Besides, the “AR Antagonist CV-1 Cells Efficacy (%)” value in test [3] (CV-1 cells) was “na (na = not active (i.e. efficacy of <20 and potency of >10,000))”.
Take `CCC1C(C)c2c(ccc3[nH]c(=O)cc(C(F)(F)F)c23)N1CC(F)(F)F` (racemic) [Compound 134, (±)-5,6-cis-Dihydro-6-ethyl-5-methyl-7-(2,2,2-trifluoroethyl)-4-trifluoromethyl-7H-pyrrolo[3,2-f]quinolin-2(1H)-one]: the inhibition constant (Ki) in test [1] (setting [4]) was determined as 6.8 nM. Further, in test [2], the EC50 came to 4.2 nM and the “AR Agonist CV-1 Cells Efficacy (%)” value was 70%. Further, the IC50 in test [3] (setting [5]) was over 10000 nM. Moreover, in test [3] (CV-1 cells), the “AR Antagonist CV-1 Cells Efficacy (%)” value is “na (na = not active (i.e. efficacy of <20 and potency of >10,000))”.
As to `CC1C(c2ccc(N(C)C)cc2)c2c(ccc3[nH]c(=O)cc(C(F)(F)F)c23)N1CC(F)(F)F` (racemic) [Compound 137, (±)-5,6-cis-Dihydro-5-(4-dimethylaminophenyl)-6-methyl-7-(2,2,2-trifluoroethyl)-4-trifluoromethyl-7H-pyrrolo[3,2-f]quinolin-2(1H)-one], in test [1] (read-out: AR Binding Ki), the Ki stood at 107 nM. In test [2], the half-maximal effective concentration (EC50) was determined as 145 nM and the “AR Agonist CV-1 Cells Efficacy (%)” value came out at 77%. Further, the half-inhibitory concentration (IC50) in test [3] is over 10000 nM. In addition, the “AR Antagonist CV-1 Cells Efficacy (%)” value in test [3] (CV-1 cells) is “na (na = not active (i.e. efficacy of <20 and potency of >10,000))”.
`O=c1cc(C(F)(F)F)c2c3c(ccc2[nH]1)N(CC(F)(F)F)CC3c1ccccc1` (racemic) [Compound 141, (±)-5,6-Dihydro-5-phenyl-7-(2,2,2-trifluoroethyl)-4-trifluoromethyl-7H-pyrrolo[3,2-f]quinolin-2(1H)-one] showed an inhibitory constant (Ki) in test [1] (setting [4]) of 97 nM. In test [2], a half-maximal response (EC50) required 86 nM and the “AR Agonist CV-1 Cells Efficacy (%)” value turned out to be 46%. The IC50 in test [3] (setting [5]) stood at 34 nM. Further, in test [3] (CV-1 cells), the “AR Antagonist CV-1 Cells Efficacy (%)” value was found to be 44%.
The matching figures for `CCCC1C(CC)c2c(ccc3[nH]c(=O)cc(C(F)(F)F)c23)N1CC(F)(F)F` (racemic) [Compound 146, (±)-5,6-Dihydro-5-ethyl-6-propyl-7-(2,2,2-trifluoroethyl)-4-trifluoromethyl-7H-pyrrolo[3,2-f]quinolin-2(1H)-one]: 75 nM, 49 nM, 38%, 1 nM and 66%.
Regarding `CCC1C(C)c2c(ccc3[nH]c(=O)ccc23)N1CC(F)(F)F` (racemic) [Compound 149, (±)-5,6-cis-Dihydro-5-methyl-6-ethyl-7-(2,2,2-trifluoroethyl)-7H-pyrrolo[3,2-f]quinolin-2(1H)-one], the inhibition constant (Ki) in test [1] (read-out: AR Binding Ki) turned out to be 127 nM. In addition, in test [2], the EC50 is over 10000 nM; the “AR Agonist CV-1 Cells Efficacy (%)” value was “na (na = not active (i.e. efficacy of <20 and potency of >10,000))”. Also, in test [3], the IC50 was 25 nM. Besides, the “AR Antagonist CV-1 Cells Efficacy (%)” value in test [3] (CV-1 cells) is 81%.
On to `CCC1CCOc2c1ccc1[nH]c(=O)cc(C)c21` (racemic) [Compound 215, (±)-7,8-Dihydro-8-ethyl-4-methyl-6H-pyrano[2,3-f]quinolin-2(1H)-one], for which the inhibition constant (Ki) in test [1] (setting [4]) was 47 nM. In test [2], the response was half-maximal at 2070 nM (EC50) and the “AR Agonist CV-1 Cells Efficacy (%)” value is listed as 28%. The IC50 in test [3] came to 17 nM. In addition, the “AR Antagonist CV-1 Cells Efficacy (%)” value in test [3] (CV-1 cells) amounted to 77%.
`CCC1CCOc2cc3c(cc21)c(C(F)(F)F)c(F)c(=O)n3C` (racemic) [Compound 221, (±)-6,7-Dihydro-6-ethyl-3-fluoro-4-trifluoromethyl-1-methyl-8H-pyrano[3,2-g]quinolin-2(1H)-one] showed a Ki in test [1] (setting [4]) of 29 nM. In test [2], the EC50 is over 10000 nM; the “AR Agonist CV-1 Cells Efficacy (%)” value is “na (na = not active (i.e. efficacy of <20 and potency of >10,000))”. For the same molecule, the IC50 in test [3] (setting [5]) was 311 nM. For the same molecule, the “AR Antagonist CV-1 Cells Efficacy (%)” value in test [3] (CV-1 cells) is 78%.
On to `O=c1cc(C(F)(F)F)c2c3c(ccc2[nH]1)N(CC(F)(F)F)C1CCCC31` (single isomer, unassigned; (+)) [Compound 178, (+)-4c,5,6,7,7a(cis),8-Hexahydro-8-(2,2,2-trifluoroethyl)-4-trifluoromethylcyclopentano-[g]pyrrolo[3,2-f]quinolin-2(1H)-one], for which, in test [1] (setting [4]), the affinity corresponds to a Ki of 900 nM. In addition, in test [2], a half-maximal response (EC50) required 21 nM and the “AR Agonist CV-1 Cells Efficacy (%)” value was 24%. In addition, in test [3] (setting [5]), the IC50 amounted to 50 nM. For the same molecule, the “AR Antagonist CV-1 Cells Efficacy (%)” value in test [3] (CV-1 cells) was found to be 48%.
For `O=c1cc(C(F)(F)F)c2c3c(ccc2[nH]1)N(CC(F)(F)F)C1CCCC31` (single isomer, unassigned; (-)) [Compound 179, (−)-4c,5,6,7,7a(cis),8-Hexahydro-8-(2,2,2-trifluoroethyl)-4-trifluoromethylcyclopentano-[g]pyrrolo[3,2-f]quinolin-2(1H)-one], the Ki in test [1] (setting [4]) is 4.1 nM. For the same molecule, in test [2], the EC50 was 1.3 nM and the “AR Agonist CV-1 Cells Efficacy (%)” value is 91%. For the same molecule, in test [3] (setting [5]), the half-inhibitory concentration (IC50) was over 10000 nM. Besides, the “AR Antagonist CV-1 Cells Efficacy (%)” value in test [3] (CV-1 cells) is “na (na = not active (i.e. efficacy of <20 and potency of >10,000))”.
With `CC1(C)CCc2c(ccc3[nH]c(=O)cc(C(F)(F)F)c23)N1` [Compound 104, 5,6,7,8-Tetrahydro-7,7-dimethyl-4-trifluoromethylpyridino[3,2-f]quinolin-2(1H)-one], in test [1] (setting [4]), the Ki stood at 15 nM. Moreover, in test [2], the midpoint of the response, the EC50, lay at 183 nM and the “AR Agonist CV-1 Cells Efficacy (%)” value is on record as 78%. Moreover, the IC50 in test [3] (setting [5]) was 1.8 nM. Further, the “AR Antagonist CV-1 Cells Efficacy (%)” value in test [3] (CV-1 cells) worked out at 50%.
In turn, `CCC1(CC)CCc2c(ccc3[nH]c(=O)cc(C(F)(F)F)c23)N1` [Compound 105, 5,6,7,8-Tetrahydro-7,7-diethyl-4-trifluoromethylpyridino[3,2-f]quinolin-2(1H)-one] registered an inhibitory constant (Ki) in test [1] (setting [4]) of 45 nM. In test [2], the 50% effective concentration (EC50) was found to be 32 nM and the “AR Agonist CV-1 Cells Efficacy (%)” value is listed as 57%. For the same molecule, the IC50 in test [3] (setting [5]) was over 10000 nM. In addition, in test [3] (CV-1 cells), the “AR Antagonist CV-1 Cells Efficacy (%)” value is “na (na = not active (i.e. efficacy of <20 and potency of >10,000))”.
In turn, `CC1(C)C=Cc2c(ccc3[nH]c(=O)cc(C(F)(F)F)c23)N1` [Compound 106, 7,8-Dihydro-7,7-dimethyl-4-trifluoromethylpyridino[3,2-f]quinolin-2(1H)-one] yielded a Ki in test [1] (setting [4]) of 45 nM. In addition, in test [2], the midpoint of the response, the EC50, lay at 12 nM and the “AR Agonist CV-1 Cells Efficacy (%)” value is given as 108%. The half-inhibitory concentration (IC50) in test [3] (setting [5]) was over 10000 nM. For the same molecule, in test [3] (CV-1 cells), the “AR Antagonist CV-1 Cells Efficacy (%)” value is “na (na = not active (i.e. efficacy of <20 and potency of >10,000))”.
Take `CCN1c2ccc3[nH]c(=O)cc(C(F)(F)F)c3c2CCC1(C)C` [Compound 108, 8-Ethyl-5,6,7,8-tetrahydro-7,7-dimethyl-4-trifluoromethylpyridino[3,2-f]quinolin-2(1H)-one]: the Ki in test [1] (setting [4]) came out at 6.7 nM. The “AR Agonist CV-1 Cells Efficacy (%)” value in test [2] was found to be 66%. Further, in test [3] (setting [5]), the IC50 is over 10000 nM. Moreover, the “AR Antagonist CV-1 Cells Efficacy (%)” value in test [3] (CV-1 cells) is “na (na = not active (i.e. efficacy of <20 and potency of >10,000))”.
